Here are results for 16 compounds from US20230089530A1, “QUINUCLIDINONE ANALOGUES AS ANTICANCER AGENTS” (Newave Pharmaceutical Inc., priority 2020, published 2023).

The subject of series [1] is RS4;11(G101V) cancer cells. Briefly: In vitro anti-proliferation assay in RS4;11 cell line with G101V mutation (ATPlite luminescence). Particulars: about 72 hours incubation, medium supplemented with 5% FBS or 10% normal human serum. In kind it is cell-based. How it is done: Biological Example 1: In Vitro Anti-Proliferation Assay in BCL-2-Dependent Acute Lymphoblastic Leukemia (ALL) Cell Line RS4;11 with G101V Mutation
(§1) The RS4;11 cell line used herein was engineered to stably overexpress the G101V mutant form of human Bcl-2. The cell antiproliferation was assayed by PerkinElmer ATPlite™ Luminescence Assay System. Briefly, the RS4;11(G101V) cancer cells were plated at a density of about 1×10^4 cells per well in Costar 96-well plates, and were incubated with different concentrations of compounds for about 72 hours in medium supplemented with 5% FBS or 10% normal human serum (NHS). One lyophilized substrate solution vial was then reconstituted by adding 5 mL of substrate buffer solution, and was agitated gently until the solution was homogeneous. About 50 μL of mammalian cell lysis solution was added to 100 μL of cell suspension per well of a microplate, and the plate was shaken for about five minutes in an orbital shaker at ˜700 rpm. This procedure was used to lyse the cells and to stabilize the ATP. Next, 50 μL substrate solution was added to the wells and microplate was shaken for five minutes in an orbital shaker at ˜700 rpm. Finally, the luminescence was measured by a PerkinElmer TopCount® Microplate Scintillation Counter. Such assays, carried out with a range of doses of test compounds, allowed the determination of the cellular anti-antiproliferative IC50 of the compounds of the present invention. The following table lists the IC50 values of certain compounds of the invention.
On the technique in general: In ATP-based viability assays light output follows the ATP content of the culture.

The subject of series [2] is RS4;11-G101V cell line. Briefly: Another in vitro anti-proliferation assay in RS4;11-G101V cell line. In kind it is cell-based, human. How it is done:
as §1
The following table lists the IC50 values of another in vitro anti-proliferation assay in RS4;11-G101V cell line.

A short description of series [3]: Mice PK study. In kind it is in vivo. Particulars: CD-1 mouse. How it is done:
The pharmacokinetics of compounds were evaluated in CD-1 mouse via Intravenous and Oral Administration. The IV dose was administered as a slow bolus in the Jugular vein, and oral doses were administered by gavage. The formulation for IV dosing was 5% DMSO in 20% HPBCD in water, and the PO formulation was 2.5% DMSO, 10% EtOH, 20% Cremphor EL, 67.5% D5W. The PK time point for the IV arm was 5, 15, 30 min, 1, 2, 4, 6, 8, 12, 24 hours post dose, and for PO arm was 15, 30 min, 1, 2, 4, 6, 8, 12, 24 hours post dose. Approximately 0.03 mL blood was collected at each time point. Blood of each sample was transferred into plastic micro centrifuge tubes containing EDTA-K2 and collect plasma within 15 min by centrifugation at 4000 g for 5 minutes in a 4° C. centrifuge. Plasma samples were stored in polypropylene tubes. The samples were stored in a freezer at −75±15° C. prior to analysis. Concentrations of compounds in the plasma samples were analyzed using a LC-MS/MS method. WinNonlin (Phoenix™, version 6.1) or other similar software was used for pharmacokinetic calculations. The following pharmacokinetic parameters were calculated, whenever possible from the plasma concentration versus time data: IV administration: C0, CL, Vd, T1/2, AUCinf, AUClast, MRT, Number of Points for Regression; PO administration: Cmax, Tmax, T1/2, AUCinf, AUClast, F %, Number of Points for Regression. The pharmacokinetic data was described using descriptive statistics such as mean, standard deviation.

A value given as a limit tells only on which side of the number the result lay.

By IC50 is commonly meant the concentration needed to halve the response being measured. Low readings indicate greater potency in that assay, high ones weaker potency in that assay. The compound `COC[C@@]1(CO)C(=O)C2(C)CCN1CC2` (single isomer, unassigned) [Example 3 (isomer 1)] showed a 50% inhibitory concentration (IC50) in series [1] (Homo sapiens, RS4-11, 72 h) of less than 5 µM.

As to `COC[C@@]1(CO)C(=O)C2(C)CCN1CC2` (single isomer, unassigned) [Example 3 (isomer 2)], in series [1], the half-maximal inhibitory concentration (IC50) is greater than 5 µM.

As for `CCC12CCN(CC1)[C@@](CO)(COC)C2=O` (single isomer, unassigned) [Example 6(isomer 1)], the IC50 in series [1] (Homo sapiens, RS4-11, 72 h) was less than 5 µM.

With `CCC12CCN(CC1)[C@](CO)(COC)C2=O` (single isomer, unassigned) [Example 6(isomer 2)], the IC50 in series [1] (Homo sapiens, RS4-11, 72 h) is less than 5 µM.

Turning to `CCOC[C@@]1(CO)C(=O)C2(C)CCN1CC2` (single isomer, unassigned) [Example 7(isomer 1)], the IC50 in series [1] (Homo sapiens, RS4-11, 72 h) is less than 5 µM.

`CCOC[C@]1(CO)C(=O)C2(C)CCN1CC2` (single isomer, unassigned) [Example 7(isomer 2)] gave an IC50 in series [1] (Homo sapiens, RS4-11, 72 h) of less than 5 µM.

Compound `CC(C)OCC1(CO)C(=O)C2(C)CCN1CC2` (single isomer, unassigned) [Example 8(isomer 1), 2-(hydroxymethyl)-2-(isopropoxymethyl)-4-methyl-1-azabicyclo[2.2.2]octan-3-one] returned an IC50 in series [1] (Homo sapiens, RS4-11, 72 h) of less than 5 µM.

In series [1], `CC(C)OCC1(CO)C(=O)C2(C)CCN1CC2` (single isomer, unassigned) [Example 8(isomer 2), 2-(hydroxymethyl)-2-(isopropoxymethyl)-4-methyl-1-azabicyclo[2.2.2]octan-3-one] came in with a concentration for half-maximal inhibition (IC50) of less than 5 µM.

`COCC1(CO)C(=O)C2CCN1CC2` (stereo not shown) [APR-246, reference compound]: the IC50 in series [1] is less than 5 µM; in series [2] it was 1.76 µM.

As for `COCC1(CO)C(=O)C2(C)CCN1CC2` (stereo not shown) [Example 2, 2-(hydroxymethyl)-2-(methoxymethyl)-4-methyl-1-azabicyclo[2.2.2]octan-3-one], the IC50 in series [1] (Homo sapiens, RS4-11, 72 h) was less than 5 µM.

With `CC12CCN(CC1)C(CO)(CO)C2=O` [Example 4, 2,2-bis(hydroxymethyl)-4-methyl-1-azabicyclo[2.2.2]octan-3-one], in series [1] (Homo sapiens, RS4-11, 72 h), the IC50 was greater than 5 µM.

`COCC1(CO)C(=O)C2(C(C)C)CCN1CC2` (stereo not shown) [Example 5, 2-(hydroxymethyl)-4-isopropyl-2-(methoxymethyl)-1-azabicyclo[2.2.2]octan-3-one]: the half-inhibitory concentration (IC50) in series [1] (Homo sapiens, RS4-11, 72 h) was less than 5 µM.

`COCC1(CO)C(=O)C2(F)CCN1CC2` (stereo not shown) [Example 9, 4-fluoro-2-(hydroxymethyl)-2-(methoxymethyl)-1-azabicyclo[2.2.2]octan-3-one] gave an IC50 in series [1] (Homo sapiens, RS4-11, 72 h) greater than 5 µM.

`COCC1(CO)C(=O)C2(C(F)(F)F)CCN1CC2` (stereo not shown) [Example 10, 2-(hydroxymethyl)-2-(methoxymethyl)-4-(trifluoromethyl)-1-azabicyclo[2.2.2]octan-3-one] showed an IC50 in series [1] (Homo sapiens, RS4-11, 72 h) greater than 5 µM.

`COC[C@]1(CO)C(=O)[C@H]2CC[N@]1[C@H](C)C2` [Example 15, (1R,2R,4S,6R)-2-(hydroxymethyl)-2-(methoxymethyl)-6-methylquinuclidin-3-one]: the figures for the IC50 in series [1] and in series [2] were less than 5 µM and 0.73 µM, respectively. Moreover, the “potency compared with reference compound APR-246” value in series [2] is given as “more potent than the reference compound APR-246”. Also, the “bioavailability (in words)” value in series [3] is given as “excellent bioavailability”. For the same compound, the Bioavailabilty in series [3] (Oral, 100 mpk) came out at 79%. The AUClas in series [3] (Oral, 100 mpk, plasma) is 26,093 h*ng/mL.

Compound `COC[C@@]1(CO)C(=O)[C@@H]2CC[N@@]1[C@@H](C)C2` [Example 16, (1S,2S,4R,6S)-2-(hydroxymethyl)-2-(methoxymethyl)-6-methylquinuclidin-3-one] yielded an IC50 in series [1] of less than 5 µM.
